We go through five compounds from patent publication EP3305318A1, “[6R]-5,10-METHYLENETETRAHYDROFOLATE IN 5-FLUOROURACIL BASED CHEMOTHERAPY” (Isofol Medical AB, priority 2016, dated 2018).

Read-outs that look alike come from different tables or passages of the source.

In test [1] the test system is solid tumours. The settings on record: cited from earlier work.
Test [2] relates to metastatic breast cancer. The settings on record: 5-FU combined with cyclophosphamide and methotrexate (CMF); cited from earlier work.
For test [3], the system named is advanced and recurring head and neck squamous cell cancer. Conditions: 5-FU in combination therapies with platinum compounds; cited from earlier work.
Test [4] deals with colorectal tumors. The settings on record: cited from earlier work.
The target of test [5] is T1, TS (Lacticaseibacillus casei, UniProt P00469).
T1 sequence (P00469 1-316): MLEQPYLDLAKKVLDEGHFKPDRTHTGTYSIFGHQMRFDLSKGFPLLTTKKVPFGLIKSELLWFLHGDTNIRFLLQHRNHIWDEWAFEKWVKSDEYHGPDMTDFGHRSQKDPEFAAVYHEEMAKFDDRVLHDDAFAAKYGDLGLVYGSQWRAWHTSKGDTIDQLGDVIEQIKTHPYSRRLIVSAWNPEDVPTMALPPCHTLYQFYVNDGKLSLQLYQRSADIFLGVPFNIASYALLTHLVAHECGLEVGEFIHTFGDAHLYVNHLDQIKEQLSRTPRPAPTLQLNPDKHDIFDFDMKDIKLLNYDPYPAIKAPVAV
The settings on record: cited from earlier work.

For test [6], the system named is previously untreated metastatic colorectal cancer. The settings on record: Phase II trial; cited from earlier work.
Test [7] deals with pancreas cancer. Conditions: CoFactor combined with 5-FU, phase I/II; cited from earlier work.
The subject of test [8] is colorectal cancer. Conditions: Phase IIb study; cited from earlier work.
In test [9] the test system is colorectal cancer. Put plainly: 5-FU bolus followed by multiple IV boluses of [6R]-MTHF in colorectal cancer patients (Phase I/II dose cohort trial). Conditions: initial administration of 5-FU followed by multiple IV boluses of [6R]-MTHF, interval of about 10 min - 4 hours between each bolus. Type of test: in vivo, human. The text has this:
As used herein, the term ORR shall refer to the Objective Response Rate, ie. the proportion of patients with reduction in tumor burden of a predefined amount. This shall be calculated as follows: ORR = Sum of partial responses plus complete responses as per RECIST 1.1 (a set of published rules that define when tumours in cancer patients progress during treatments, the responses being defined as: • Complete Response: Disappearance of all target lesions. • Partial Response: At least a 30% decrease in the sum of the diameters of target lesions, taking as reference the baseline sum diameters. (Eisenhauer EA, Therasse P, Bogaerts J, Schwartz LH, Sargent D, Ford R, et al. New response evaluation criteria in solid tumours: revised RECIST guideline (version 1.1). Eur J Cancer. 2009 Jan; 45(2):228-47)
The safety and efficacy of [6R]-5,10-methylenetetrahydrofolate is analyzed in an open-label, multiple-site, Phase I/II Dose Cohort Trial in combination with a fixed dose of 5-Fluorouracil (5-FU) alone or together with a fixed dose of Oxaliplatin or Irinotecan in patients with stage IV colorectal cancer. […]
[6R]-5,10-Methylenetetrahydrofolic acid is formulated as a lyophylised powder containing 100 mg per vial (calculated as free acid). […]

Consider `O=c1[nH]cc(F)c(=O)[nH]1` [5-FU, 5-fluorouracil], for which the overall response rate in test [1] (5-FU alone) is 10-15%. For the same compound, in [2], the OS result is reported as “around 20 months” and the reponse rate result is “around 20%”. Moreover, in test [3], the Response rates entry is on record as “around 30%” and the survival time entry is given as “around 6 months”. Besides, the response rate result in test [4] (5-FU given as a monotherapy) was “around 10%”.
On to `Nc1nc2c(c(=O)[nH]1)N1CN(c3ccc(C(=O)N[C@@H](CCC(=O)O)C(=O)O)cc3)C[C@@H]1CN2` [(6S)-isomer], for which the “effect on the natural [6R]-isomer as co-substrate for TS” value in test [5] was “partial competitive inhibitor”.
Turning to `Nc1nc2c(c(=O)[nH]1)N1CN(c3ccc(C(=O)N[C@@H](CCC(=O)[O-])C(=O)[O-])cc3)CC1CN2.[Ca+2]` (stereo partly shown) [CoFactor®, [6R,S]-5,10-methylene-THF Ca salt], the response rate in test [6] is 35%. Besides, the “clinical benefit, defined as stable disease or tumor response” value in test [7] is reported as 40 % of patients. Further, the “efficacy or safety compared with leucovorin study arm” value in [8] was “no significant differences”.
Turning to `Nc1nc2c(c(=O)[nH]1)N(C=O)C(CNc1ccc(C(=O)N[C@@H](CCC(=O)O)C(=O)O)cc1)CN2` (stereo partly shown) [LV, Leucovorin], the overall response rates entry in test [1] (LV added to 5-FU) is “over 20%”. Also, the response rate in [4] (Leucovorin (LV) added to 5-FU) was 21%.
On to `Nc1nc2c(c(=O)[nH]1)N1CN(c3ccc(C(=O)N[C@@H](CCC(=O)O)C(=O)O)cc3)C[C@H]1CN2` [[6R]-MTHF, [6R]-5,10-methylenetetrahydrofolate], for which the “ORRs (objective response rates)” value in [9] is on record as 50-60%.
